Source: patent US11834443B2, “Crystalline form of the compound (s)-3-{4-[5-(2-cyclopentyl-6-methoxy-pyridin-4-yl)-[1,2,4]oxadiazol-3-yl]-2-ethyl-6-methyl-phenoxy}-propane-1,2-diol” (Idorsia Pharmaceuticals Ltd, priority 2015, dated 2023)
≈ marks a conversion by molar mass, not a printed value.

Key:
[1] = Gravimetric vapour sorption (GVS) analysis, hygroscopicity; type: physicochemical; conditions: mass change between 40% and 80% relative humidity, first adsorption scan, 25° C.
Protocol: Gravimetric Vapour Sorption (GVS) Analysis:
Measurements were performed simultaneously for the COMPOUND in the crystalline form A, B, and C on a multi sample instrument SPS-100n (Projekt Messtechnik, Ulm, Germany) operated in stepping mode at 25° C.

[2] = Aqueous solubility; type: physicochemical; conditions: in water

| hygroscopic classification (European Pharmacopeia Technical Guide) [1] | mass gain [1] | solubility [2] [µg/mL] | Structure (SMILES) |
| --- | --- | --- | --- |
| Slightly hygroscopic | 0.8% | – | CCc1cc(-c2noc(-c3cc(OC)nc(C4CCCC4)c3)n2)cc(C)c1OC[C@@H](O)CO [Form C, (S)-3-{4-[5-(2-cyclopentyl-6-methoxy-pyridin-4-yl)-[1,2,4]oxadiazol-3-yl]-2-ethyl-6-methyl-phenoxy}-propane-1,2-diol] |
| – | – | ~0.06 (≈ 0.132 µM) | CCc1cc(-c2noc(-c3cc(OC)nc(C4CCCC4)c3)n2)cc(C)c1OC[C@@H](O)CO [COMPOUND, (S)-3-{4-[5-(2-cyclopentyl-6-methoxy-pyridin-4-yl)-[1,2,4]oxadiazol-3-yl]-2-ethyl-6-methyl-phenoxy}-propane-1,2-diol] |
| Slightly hygroscopic | 0.5% | – | CCc1cc(-c2noc(-c3cc(OC)nc(C4CCCC4)c3)n2)cc(C)c1OC[C@@H](O)CO [Form B, (S)-3-{4-[5-(2-cyclopentyl-6-methoxy-pyridin-4-yl)-[1,2,4]oxadiazol-3-yl]-2-ethyl-6-methyl-phenoxy}-propane-1,2-diol] |
| Non-hygroscopic | less than 0.2% | – | CCc1cc(-c2noc(-c3cc(OC)nc(C4CCCC4)c3)n2)cc(C)c1OC[C@@H](O)CO [Form A, (S)-3-{4-[5-(2-cyclopentyl-6-methoxy-pyridin-4-yl)-[1,2,4]oxadiazol-3-yl]-2-ethyl-6-methyl-phenoxy}-propane-1,2-diol] |
